Key:
[1] = target: T1, cMET enzyme (amino acids 1023-1360) (Homo sapiens, UniProt P08581); assay: Determination of inhibition of cMET (capillary electrophoresis, phosphorylated peptide product); format: biochemical; details: 1.2 nM cMET, 50 μM ATP, 2 μM FL-2 peptide, 2 hours room temperature
T1 construct: The cMET enzyme (amino acids 1023-1360) nominally at 24 μM was held at −80° C. until use; His tag (N, cleaved yes); made in house; host or cells: Sf9 cells

[2] = test system: A549; assay: Inhibition of cell viability (MTS), A549 (negative control line); format: cell-based; details: Homo sapiens, A549, 96 h, A549 cells (negative control), 96 hours incubation
Outline: (§1)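 Cells seeded at 2,000-7,500/well, attached ~24 h, then treated in duplicate with 1:2.5 serial dilutions at 0.5% final DMSO. Viability by MTS; EC50 from non-linear fit after background correction and normalisation to DMSO. MKN45 and EBC1 are cMET-dependent; A549 serves as negative control.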

[3] = test system: MKN45; assay: Inhibition of cell viability (MTS), MKN45; format: cell-based; details: Homo sapiens, MKN-45, 96 h, MKN45 cells, 96 hours incubation
Outline: as §1

[4] = test system: EBC1; assay: Inhibition of cell viability (MTS), EBC1; format: cell-based; details: Homo sapiens, EBC-1, 96 h, EBC1 cells, 96 hours incubation
Outline: as §1

T1 sequence (P08581 1023-1360): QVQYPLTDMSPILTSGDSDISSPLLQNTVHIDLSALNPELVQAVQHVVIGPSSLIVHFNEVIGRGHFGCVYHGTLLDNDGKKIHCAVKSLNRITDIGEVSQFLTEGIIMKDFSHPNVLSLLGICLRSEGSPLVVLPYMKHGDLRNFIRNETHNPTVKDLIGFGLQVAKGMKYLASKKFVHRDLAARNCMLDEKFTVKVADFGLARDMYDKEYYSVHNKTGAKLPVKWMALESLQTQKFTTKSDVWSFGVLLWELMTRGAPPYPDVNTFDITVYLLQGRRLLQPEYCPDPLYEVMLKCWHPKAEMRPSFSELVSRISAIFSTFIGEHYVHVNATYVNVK

CC(c1ccc2nc(NC(=O)C3CC3)cn2n1)c1nnc2ccc(-c3ccc(S(C)(=O)=O)cc3)cn12 (centres unmarked) [Compound 60, N-(6-(1-(6-(4-(methylsulfonyl)phenyl)-[1,2,4]triazolo[4,3-a]pyridin-3-yl)ethyl)imidazo[1,2-b]pyridazin-2-yl)cyclopropanecarboxamide]
IC50 [1]: < 30 nM | EC50 [2]: > 50000 nM | EC50 [3]: 60 to 100 nM | EC50 [4]: 60 to 100 nM

COc1cccc(-c2ccc3nnc(C(C)c4ccc5nc(NC(=O)C6CC6)cn5n4)n3c2)c1 (centres unmarked) [Compound 61, N-(6-(1-(6-(3-methoxyphenyl)-[1,2,4]triazolo[4,3-a]pyridin-3-yl)ethyl)imidazo[1,2-b]pyridazin-2-yl)cyclopropanecarboxamide]
IC50 [1]: < 30 nM | EC50 [2]: > 50000 nM | EC50 [3]: < 30 nM | EC50 [4]: < 30 nM

Cc1csc(-c2ccc3nnc(C(C)c4ccc5nc(NC(=O)C6CC6)cn5n4)n3c2)c1 (centres unmarked) [Compound 62, N-(6-(1-(6-(4-methylthiophen-2-yl)-[1,2,4]triazolo[4,3-a]pyridin-3-yl)ethyl)imidazo[1,2-b]pyridazin-2-yl)cyclopropanecarboxamide]
IC50 [1]: < 30 nM | EC50 [2]: 5000 to 8000 nM | EC50 [3]: < 30 nM | EC50 [4]: < 30 nM

CC(c1ccc2nc(NC(=O)C3CC3)cn2n1)c1nnc2ccc(-c3ccc(C#N)cc3)cn12 (centres unmarked) [Compound 63, N-(6-(1-(6-(4-cyanophenyl)-[1,2,4]triazolo[4,3-a]pyridin-3-yl)ethyl)imidazo[1,2-b]pyridazin-2-yl)cyclopropanecarboxamide]
IC50 [1]: < 30 nM | EC50 [2]: > 50000 nM | EC50 [3]: < 30 nM | EC50 [4]: < 30 nM

CC(c1ccc2nc(NC(=O)C3CC3)cn2n1)c1nnc2ccc(-c3cn[nH]c3)cn12 (centres unmarked) [Compound 64, N-(6-(1-(6-(1H-pyrazol-4-yl)-[1,2,4]triazolo[4,3-a]pyridin-3-yl)ethyl)imidazo[1,2-b]pyridazin-2-yl)cyclopropanecarboxamide]
IC50 [1]: < 30 nM | EC50 [2]: > 50000 nM | EC50 [3]: 100 to 249 nM | EC50 [4]: 100 to 249 nM

CC(c1ccc2nc(NC(=O)C3CC3)cn2n1)c1nnc2ccc(-c3cccc(F)c3)cn12 (centres unmarked) [Compound 65, N-(6-(1-(6-(3-fluorophenyl)-[1,2,4]triazolo[4,3-a]pyridin-3-yl)ethyl)imidazo[1,2-b]pyridazin-2-yl)cyclopropanecarboxamide]
IC50 [1]: < 30 nM | EC50 [2]: > 50000 nM | EC50 [3]: < 30 nM | EC50 [4]: < 30 nM

CC(c1ccc2nc(NC(=O)C3CC3)cn2n1)c1nnc2ccc(-c3cccc(C(N)=O)c3)cn12 (centres unmarked) [Compound 66, 3-(3-(1-(2-(cyclopropanecarboxamido)imidazo[1,2-b]pyridazin-6-yl)ethyl)-[1,2,4]triazolo[4,3-a]pyridin-6-yl)benzamide]
IC50 [1]: < 30 nM | EC50 [2]: > 50000 nM | EC50 [3]: 100 to 249 nM | EC50 [4]: 100 to 249 nM

CC(c1ccc2nc(NC(=O)C3CC3)cn2n1)c1nnc2ccc(-c3ccc(C(N)=O)cc3)cn12 (centres unmarked) [Compound 67, 4-(3-(1-(2-(cyclopropanecarboxamido)imidazo[1,2-b]pyridazin-6-yl)ethyl)-[1,2,4]triazolo[4,3-a]pyridin-6-yl)benzamide]
IC50 [1]: < 30 nM | EC50 [2]: > 50000 nM | EC50 [3]: 100 to 249 nM | EC50 [4]: 60 to 100 nM

CNC(=O)c1ccc(-c2ccc3nnc(C(C)c4ccc5nc(NC(=O)C6CC6)cn5n4)n3c2)cc1 (centres unmarked) [Compound 68, 4-(3-(1-(2-(cyclopropanecarboxamido)imidazo[1,2-b]pyridazin-6-yl)ethyl)-[1,2,4]triazolo[4,3-a]pyridin-6-yl)-N-methylbenzamide]
IC50 [1]: < 30 nM | EC50 [2]: > 50000 nM | EC50 [3]: 30 to 59 nM | EC50 [4]: 30 to 59 nM

CCOc1ccc(-c2ccc3nnc(C(C)c4ccc5nc(NC(=O)C6CC6)cn5n4)n3c2)cc1 (centres unmarked) [Compound 69, N-(6-(1-(6-(4-ethoxyphenyl)-[1,2,4]triazolo[4,3-a]pyridin-3-yl)ethyl)imidazo[1,2-b]pyridazin-2-yl)cyclopropanecarboxamide]
IC50 [1]: < 30 nM | EC50 [2]: > 50000 nM | EC50 [3]: < 30 nM | EC50 [4]: < 30 nM

COc1ccc(-c2ccc3nnc(C(C)c4ccc5nc(NC(=O)C6CC6)cn5n4)n3c2)cc1C (centres unmarked) [Compound 70, N-(6-(1-(6-(4-methoxy-3-methylphenyl)-[1,2,4]triazolo[4,3-a]pyridin-3-yl)ethyl)imidazo[1,2-b]pyridazin-2-yl)cyclopropanecarboxamide]
IC50 [1]: < 30 nM | EC50 [2]: > 50000 nM | EC50 [3]: < 30 nM | EC50 [4]: < 30 nM

CC(c1ccc2nc(NC(=O)C3CC3)cn2n1)c1nnc2ccc(-c3ccc(F)c(C#N)c3)cn12 (centres unmarked) [Compound 71, N-(6-(1-(6-(3-cyano-4-fluorophenyl)-[1,2,4]triazolo[4,3-a]pyridin-3-yl)ethyl)imidazo[1,2-b]pyridazin-2-yl)cyclopropanecarboxamide]
IC50 [1]: < 30 nM | EC50 [2]: > 50000 nM | EC50 [3]: < 30 nM | EC50 [4]: < 30 nM

CC(c1ccc2nc(NC(=O)C3CC3)cn2n1)c1nnc2ccc(-c3ccc(C#N)c(F)c3)cn12 (centres unmarked) [Compound 72, N-(6-(1-(6-(4-cyano-3-fluorophenyl)-[1,2,4]triazolo[4,3-a]pyridin-3-yl)ethyl)imidazo[1,2-b]pyridazin-2-yl)cyclopropanecarboxamide]
IC50 [1]: < 30 nM | EC50 [2]: > 50000 nM | EC50 [3]: < 30 nM | EC50 [4]: < 30 nM

CC(c1ccc2nc(NC(=O)C3CC3)cn2n1)c1nnc2ccc(-c3cccc(N(C)C)c3)cn12 (centres unmarked) [Compound 73, N-(6-(1-(6-(3-(dimethylamino)phenyl)-[1,2,4]triazolo[4,3-a]pyridin-3-yl)ethyl)imidazo[1,2-b]pyridazin-2-yl)cyclopropanecarboxamide]
IC50 [1]: < 30 nM | EC50 [2]: 8000 to 25000 nM | EC50 [3]: < 30 nM | EC50 [4]: < 30 nM

O=C(Nc1cn2nc(C(F)(F)c3nnc4ccc(-c5ccc(F)cc5)cn34)ccc2n1)C1CC1 [Compound 74, N-(6-(difluoro(6-(4-fluorophenyl)-[1,2,4]triazolo[4,3-a]pyridin-3-yl)methyl)imidazo[1,2-b]pyridazin-2-yl)cyclopropanecarboxamide]
IC50 [1]: < 30 nM | EC50 [2]: 8000 to 25000 nM | EC50 [3]: < 30 nM | EC50 [4]: < 30 nM

COc1ccc(-c2ccc3nnc(C(F)(F)c4ccc5nc(NC(=O)C6CC6)cn5n4)n3c2)cc1 [Compound 75, N-(6-(difluoro(6-(4-methoxyphenyl)-[1,2,4]triazolo[4,3-a]pyridin-3-yl)methyl)imidazo[1,2-b]pyridazin-2-yl)cyclopropanecarboxamide]
IC50 [1]: < 30 nM | EC50 [2]: 8000 to 25000 nM | EC50 [3]: < 30 nM | EC50 [4]: < 30 nM

COc1cccc(-c2ccc3nnc(C(F)(F)c4ccc5nc(NC(=O)C6CC6)cn5n4)n3c2)c1 [Compound 76, N-(6-(difluoro(6-(3-methoxyphenyl)-[1,2,4]triazolo[4,3-a]pyridin-3-yl)methyl)imidazo[1,2-b]pyridazin-2-yl)cyclopropanecarboxamide]
IC50 [1]: < 30 nM | EC50 [2]: > 50000 nM | EC50 [3]: < 30 nM | EC50 [4]: < 30 nM

O=C(Nc1cn2nc(C(F)(F)c3nnc4ccc(-c5cccc(F)c5)cn34)ccc2n1)C1CC1 [Compound 77, N-(6-(difluoro(6-(3-fluorophenyl)-[1,2,4]triazolo[4,3-a]pyridin-3-yl)methyl)imidazo[1,2-b]pyridazin-2-yl)cyclopropanecarboxamide]
IC50 [1]: < 30 nM | EC50 [2]: > 50000 nM | EC50 [3]: < 30 nM | EC50 [4]: < 30 nM

O=C(Nc1cn2nc(C(F)(F)c3nnc4ccc(-c5cccnc5)cn34)ccc2n1)C1CC1 [Compound 78, N-(6-(difluoro(6-(pyridin-3-yl)-[1,2,4]triazolo[4,3-a]pyridin-3-yl)methyl)imidazo[1,2-b]pyridazin-2-yl)cyclopropanecarboxamide]
IC50 [1]: 30 to 59 nM | EC50 [2]: > 50000 nM | EC50 [3]: < 30 nM | EC50 [4]: < 30 nM

O=C(Nc1cn2nc(C(F)(F)c3nnc4ccc(-c5ccncc5)cn34)ccc2n1)C1CC1 [Compound 79, N-(6-(difluoro(6-(pyridin-4-yl)-[1,2,4]triazolo[4,3-a]pyridin-3-yl)methyl)imidazo[1,2-b]pyridazin-2-yl)cyclopropanecarboxamide]
IC50 [1]: 60 to 100 nM | EC50 [2]: > 50000 nM | EC50 [3]: < 30 nM | EC50 [4]: < 30 nM

CC(C)c1ccc(-c2ccc3nnc(C(F)(F)c4ccc5nc(NC(=O)C6CC6)cn5n4)n3c2)cc1 [Compound 80, N-(6-(difluoro(6-(4-isopropylphenyl)-[1,2,4]triazolo[4,3-a]pyridin-3-yl)methyl)imidazo[1,2-b]pyridazin-2-yl)cyclopropanecarboxamide]
IC50 [1]: 30 to 59 nM | EC50 [2]: > 50000 nM | EC50 [3]: < 30 nM | EC50 [4]: 30 to 59 nM

O=C(Nc1cn2nc(C(F)(F)c3nnc4ccc(-c5cc(F)cc(F)c5)cn34)ccc2n1)C1CC1 [Compound 81, N-(6-((6-(3,5-difluorophenyl)-[1,2,4]triazolo[4,3-a]pyridin-3-yl)difluoromethyl)imidazo[1,2-b]pyridazin-2-yl)cyclopropanecarboxamide]
IC50 [1]: < 30 nM | EC50 [2]: > 50000 nM | EC50 [3]: < 30 nM | EC50 [4]: < 30 nM

N#Cc1cccc(-c2ccc3nnc(C(F)(F)c4ccc5nc(NC(=O)C6CC6)cn5n4)n3c2)c1 [Compound 82, N-(6-((6-(3-cyanophenyl)-[1,2,4]triazolo[4,3-a]pyridin-3-yl)difluoromethyl)imidazo[1,2-b]pyridazin-2-yl)cyclopropanecarboxamide]
IC50 [1]: < 30 nM | EC50 [2]: > 50000 nM | EC50 [3]: < 30 nM | EC50 [4]: < 30 nM

Reference: patent publication US8178534B2, “cMET inhibitors” (Takeda Pharmaceutical Company Limited, priority 2008, dated 2012)
